pIC50: −log10 of the molar value. Active and inactive are the calls of the source. The calls are words filed in the database; no cut-off is given here.
Assays:
[1] = Intrinsic clearance in mouse hepatocytes assessed per million cells by UPLC-MS analysis; assay type: ADME, cell-based, Hepatocyte; details: read-out: CLH
[2] = Drug metabolism in human hepatocytes assessed as 3'-propoxy-5,5'-bi(1,2,4-triazin)-3-ol formation by LC-MS/MS(CID) analysis; assay type: ADME, cell-based, Hepatocyte
[3] = Drug metabolism in mouse liver microsomes assessed as oxygenated metabolite M+16(1) formation by LC-MS/MS(CID) analysis; assay type: ADME, Microsome
[4] = Drug metabolism in mouse liver microsomes assessed as oxygenated metabolite M+16(2) formation by LC-MS/MS(CID) analysis; assay type: ADME, Microsome
Plasmodium falciparum [5] = assay: Bactericidal activity against Plasmodium falciparum 3D7A at 10 times IC50; assay type: functional, organism-based
[6] = Intrinsic clearance in mouse liver microsomes in presence of NADPH by UPLC-MS analysis; assay type: ADME, Microsome
[7] = AUC (0 to infinity) in Swiss mouse plasma at 27 mg/kg, po measured up to 24 hrs by LC-MS analysis
Plasmodium falciparum [8] = assay: microbe, parasite or virus in culture; details: 3D7, 72 h
Description: Antimalarial activity against Plasmodium falciparum 3D7 infected in human red blood cells after 72 hrs by DAPI-staining based assay

[9] = Drug metabolism in human liver microsomes assessed as 3'-propoxy-5,5'-bi(1,2,4-triazin)-3-ol formation by LC-MS/MS(CID) analysis; assay type: ADME, Microsome
[10] = AUC(0 to infinity) in Sprague-Dawley rat plasma at 3 mg/kg, iv measured up to 24 hrs by LC-MS analysis; assay type: ADME, organism-based; design: route intravenous, dose 3 mg/kg, time <=24
[11] = Toxicity in Swiss mouse assessed as induction of poor posture at 32 mg/kg/day administered for 4 days; assay type: organism-based; details: in vivo, 96 h, time 4 day
[12] = Drug metabolism in rat hepatocytes assessed as oxygenated metabolite M+16(2) formation by LC-MS/MS(CID) analysis; assay type: ADME, cell-based, Hepatocyte
[13] = Volume of distribution at steady state in Swiss mouse at 2.7 mg/kg, iv measured up to 24 hrs by LC-MS analysis; assay type: ADME, organism-based; details: in vivo, read-out: Vdss
[14] = Drug metabolism in Sprague-Dawley rat feces assessed as oxygenated metabolite M+16(1) formation at 3 mg/kg, iv by high-resolution mass spectrometry; assay type: ADME, organism-based; details: in vivo
[15] = Drug metabolism in human liver microsomes assessed as oxygenated metabolite N-methyl-2-(3'-propoxy-5,5'-bi(1,2,4-triazin)-3-yloxy)ethanamine oxide formation by LC-MS/MS(CID) analysis; assay type: ADME, Microsome
[16] = Apparent permeability across basolateral side to apical side in human Caco2 cells measured over 120 mins by LC-MS analysis; assay type: ADME, cell-based; details: Caco-2
[17] = Drug metabolism in Sprague-Dawley rat feces assessed as oxygenated metabolite M+16(1) formation at 10 mg/kg, po by high-resolution mass spectrometry; assay type: ADME, organism-based; details: in vivo
[18] = Drug metabolism in human liver microsomes assessed as oxygenated metabolite M+16(1) formation by LC-MS/MS(CID) analysis; assay type: ADME, Microsome
Cytochrome P450 2C19 = Cytochrome P450 2C19 (Homo sapiens, UniProt P33261); assay: Inhibition of CYP2C19 in human liver microsomes assessed as reduction in […] activity by . high-pressure liquid chromatography-tandem mass spectrometry; assay type: ADME
[19] = Drug metabolism in Sprague-Dawley rat plasma assessed as M-69 metabolite formation at 10 mg/kg, po by high-resolution mass spectrometry; assay type: ADME, organism-based; details: in vivo
[20] = Drug metabolism in mouse hepatocytes assessed as 3'-propoxy-5,5'-bi(1,2,4-triazin)-3-ol formation by LC-MS/MS(CID) analysis; assay type: ADME, cell-based, Hepatocyte
[21] = Drug metabolism in rat liver microsomes assessed as oxygenated metabolite N-methyl-2-(3'-propoxy-5,5'-bi(1,2,4-triazin)-3-yloxy)ethanamine oxide formation by LC-MS/MS(CID) analysis; assay type: ADME, Microsome
Plasmodium falciparum [22] = assay: Antiplasmodial activity against Plasmodium falciparum K1 by 3H-incorporation growth inhibition assay; assay type: functional, organism-based; details: pooled result: one value given for 11 cell lines, strains, targets or settings
[23] = Tmax in Sprague-Dawley rat plasma at 10 mg/kg, po administered via gavage measured up to 24 hrs by LC-MS analysis; assay type: ADME, organism-based
[24] = Ratio of drug level in blood to plasma in Sprague-Dawley rat at 3 mg/kg, iv administered as infusion for 10 mins measured after 1 hr by LC-MS analysis; assay type: ADME, organism-based; details: whole blood and plasma
[25] = Drug metabolism in rat hepatocytes assessed as glucuronides/sulfates metabolite formation by LC-MS/MS(CID) analysis; assay type: ADME, cell-based, Hepatocyte
[26] = Tmax in Swiss mouse at 2.8 mg/kg, po measured up to 24 hrs by LC-MS analysis; assay type: ADME, organism-based; details: in vivo
[27] = Apparent permeability across apical to basolateral side in human Caco2 cells measured over 120 mins by LC-MS analysis; assay type: ADME, cell-based; details: Caco-2
[28] = Apparent blood clearance in Sprague-Dawley rat at 3 mg/kg, iv measured up to 24 hrs by LC-MS analysis; assay type: ADME, organism-based; details: read-out: CL(app)
[29] = Drug metabolism in mouse liver microsomes assessed as oxygenated metabolite N-methyl-2-(3'-propoxy-5,5'-bi(1,2,4-triazin)-3-yloxy)ethanamine oxide formation by LC-MS/MS(CID) analysis; assay type: ADME, Microsome
[30] = Clearance in Sprague-Dawley rat plasma at 3 mg/kg, iv measured up to 24 hrs by LC-MS analysis; assay type: ADME, organism-based
[31] = Intrinsic clearance in rat hepatocytes assessed per million cells by UPLC-MS analysis; assay type: ADME, cell-based, Hepatocyte; details: read-out: CLH
[32] = Drug metabolism in Sprague-Dawley rat urine assessed as M-32 metabolite formation at 10 mg/kg, po by high-resolution mass spectrometry; assay type: ADME, organism-based; details: in vivo
[33] = Half life in human liver microsomes in presence of NADPH by UPLC-MS analysis; assay type: ADME, Microsome
[34] = Drug recovery in bile cannulated Sprague-Dawley rat bile at 3 mg/kg, iv measured up to 4 hrs by LC-MS analysis; assay type: ADME, organism-based; details: read-out: Drug recovery
[35] = Drug metabolism in Sprague-Dawley rat urine assessed as oxygenated metabolite M+16(1) formation at 10 mg/kg, po by high-resolution mass spectrometry; assay type: ADME, organism-based; details: in vivo
[36] = Drug metabolism in Sprague-Dawley rat urine assessed as oxygenated metabolite M+16(2) formation at 3 mg/kg, iv by high-resolution mass spectrometry; assay type: ADME, organism-based; details: in vivo
[37] = Drug metabolism in Sprague-Dawley rat urine assessed as N-methyl-2-(3'-propoxy-5,5'-bi(1,2,4-triazin)-3-yloxy)ethanamine formation at 10 mg/kg, po by high-resolution mass spectrometry; assay type: ADME, organism-based; details: in vivo
[38] = Selectivity ratio of CC50 for HEK293 cells to IC50 for Plasmodium falciparum 3D7; assay type: toxicity; details: human, read-out: Ratio CC50/IC50
[39] = Drug metabolism in Sprague-Dawley rat urine assessed as oxygenated metabolite N-methyl-2-(3'-propoxy-5,5'-bi(1,2,4-triazin)-3-yloxy)ethanamine oxide formation at 10 mg/kg, po by high-resolution mass spectrometry; assay type: ADME, organism-based; details: in vivo
[40] = Drug metabolism in rat liver microsomes assessed as oxygenated metabolite M+16(1) formation by LC-MS/MS(CID) analysis; assay type: ADME, Microsome
[41] = Drug metabolism in mouse hepatocytes assessed as glucuronides/sulfates metabolite formation by LC-MS/MS(CID) analysis; assay type: ADME, cell-based, Hepatocyte
[42] = Intrinsic clearance in human liver microsomes assessed per mg of protein in presence of NADPH by UPLC-MS analysis; assay type: ADME, Microsome; details: read-out: CLH

Chain of Cytochrome P450 2C19 (P33261 whole entry): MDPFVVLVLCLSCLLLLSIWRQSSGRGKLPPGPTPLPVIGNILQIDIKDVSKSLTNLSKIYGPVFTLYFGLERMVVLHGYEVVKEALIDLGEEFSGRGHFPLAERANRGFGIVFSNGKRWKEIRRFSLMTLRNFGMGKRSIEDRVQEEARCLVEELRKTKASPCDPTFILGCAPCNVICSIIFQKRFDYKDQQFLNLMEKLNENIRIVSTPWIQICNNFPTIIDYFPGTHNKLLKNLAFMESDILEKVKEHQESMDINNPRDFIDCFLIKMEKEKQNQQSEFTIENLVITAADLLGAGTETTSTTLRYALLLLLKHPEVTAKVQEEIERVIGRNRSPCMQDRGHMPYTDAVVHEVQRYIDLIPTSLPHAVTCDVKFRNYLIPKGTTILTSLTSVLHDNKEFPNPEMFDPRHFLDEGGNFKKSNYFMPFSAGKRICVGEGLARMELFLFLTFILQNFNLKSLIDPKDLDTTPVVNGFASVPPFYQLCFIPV

For `CCCOc1nncc(-c2cnnc(OCCN(C)C)n2)n1`, the hepatocyte CLint [1] was 3.7 µL/min/1e6 cells, the Drug metabolism [2] was “Metabolite_Notdetected” and the Drug metabolism [3] was “Metabolite_Detected”. The Drug metabolism [4] was “Metabolite_Detected”, the Activity (Plasmodium falciparum [5]) was “Active” and the microsomal CLint [6] was 42 µL/min/mg. The AUC(0-inf) [7] was 440 nM·h, the pIC50 (Plasmodium falciparum [8]) was 7.51 and the Drug metabolism [9] was “Metabolite_Notdetected”. The AUC(0-inf) [10] was 658 nM·h, the Activity [11] was “Non-Toxic” and the Drug metabolism [12] was “Metabolite_Detected”. For the same compound, the Vd [13] was 3.4 L/kg, the Drug metabolism [14] was “Metabolite_Detected” and the Drug metabolism [15] was “Metabolite_Detected”. For the same compound, the Papp B→A at 2 h [16] was 460 nm/s, the Drug metabolism [17] was “Metabolite_Detected” and the Drug metabolism [18] was “Metabolite_Detected”. The pIC50 (Cytochrome P450 2C19) was less than 4.70, the Drug metabolism [19] was “Metabolite_Detected” and the Drug metabolism [20] was “Metabolite_Detected”. For the same compound, the Drug metabolism [21] was “Metabolite_Detected”, the pIC50 (Plasmodium falciparum [22]) was 7.64 and the Tmax [23] was 1.3 h. For the same compound, the blood plasma ratio at 10 min [24] was 1.3, the Drug metabolism [25] was “Metabolite_Notdetected” and the Tmax [26] was 0.5 h. For the same compound, the Papp A→B at 2 h [27] was 400 nm/s, the clearance [28] was 12.3 L/h/kg and the Drug metabolism [29] was “Metabolite_Detected”. For the same compound, the clearance [30] was 14.9 L/h/kg, the hepatocyte CLint [31] was 10 µL/min/1e6 cells and the Drug metabolism [32] was “Metabolite_Detected”. The half-life [33] was 3.82 h, the dose excreted at 4 h [34] was 0.1% and the Drug metabolism [35] was “Metabolite_Detected”. The Drug metabolism [36] was “Metabolite_Detected”, the Drug metabolism [37] was “Metabolite_Detected” and the selectivity ratio [38] was greater than 1000. The Drug metabolism [39] was “Metabolite_Detected”, the Drug metabolism [40] was “Metabolite_Detected” and the Drug metabolism [41] was “Metabolite_Notdetected”. The microsomal CLint [42] was 8 µL/min/mg.
